Data reported in US20220128542A1, “TREATMENT EFFICIENCY EVALUATION” (TX MEDIC AB, priority 2019, published 2022).

System: Mouse motor neurons
Experiment: Gene expression array and pathway/upstream regulator analysis in motor neurons (Example 2)
Format: cell-based
Settings: 0.01 mg/ml
Method: For each cell line, n=8×25 cm^2 culture flasks were set up. Two flasks were harvested for each cell type on the day of treatment (24 hours after seeding). This represents the Day0 time point. From the remaining flasks, three flasks were treated with Control Medium and three were treated with Culture Medium (CM) containing LMW-DS to give a final concentration of 0.01 mg/ml. Cells from the treated flasks were collected after 48 hours. Therefore the collected data represent (a) untreated cells (Day0 Controls and Day2 Controls) and (b) cells treated with LMW-DS for 48 hours (Day2 LMW-DS treated).
25 cm^2 flasks were coated by adding 2 ml per flask of a solution of 50 μg/ml poly-d-lysine in Hank's balanced salt solution (HBSS) and incubating overnight at 37° C. in the dark. Flasks were washed with cell culture water and air-dried for 30 min in the dark. Flasks were coated by adding 1 ml per flask of a solution of 25 μg/ml laminin in phosphate-buffered saline (PBS) and incubating for 2 hour at 37° C. in the dark. The laminin flasks were washed with PBS three times before plating cells.
The culture medium was prepared according to Table 5.
Medium (see Table 5) was pre-warmed to 37° C. Cells were thawed in a 37° C. water bath for no longer than 2 min. 9 ml of media was gently added drop-wise. The cell suspension was mixed by inverting the tube carefully twice. The cells were counted with a Cellometer. The cells were centrifuged for 5 minutes at 200×g. Supernatant was removed (to the last 0.5 ml) and cells were gently re-suspended by trituration. The cells from the 8 vials were mixed and distributed equally into the previously coated 25 cm^2 flasks (n=8). Cells were incubated at 37° C. with 5% CO2 for 24 hours before treatment.
A fresh 100× LMW-DS stock (1.0 mg/ml) was prepared in sterile DMEM-F12. The concentrated drug stock was sterile filtered and added to the respective culture media (19.6 ml CM and 0.4 ml LMW-DS stock solution). The Control was made using 19.6 ml CM and 0.4 ml of DMEM-F12. LMW-DS and CM were added to the respective flasks (5 ml each) to reach the 0.01 mg/ml concentration of LMW-DS in each dish with a total of 10 ml CM each.
CM was aspirated into a clean and labelled 15 ml Falcon tube. The flasks (without culture medium) were placed into the −80° C. freezer for 30 minutes. The CM in the Falcon tubes was spun at 3000×g for 5 minutes. Supernatant was removed and the small pellet was re-suspended in 2.5 ml Trizol:Water (4:1) solution at room temperature (RT, ˜22° C.).
The frozen flasks were removed one-by one from the freezer and the Trizol-Water from the appropriate tubes was moved to the flask. Flasks were left at RT for 5 minutes before the content was aspirated back into the 15 ml Falcon tube (after washing the bottom of the flask with the solution thoroughly). The flasks were inspected under the microscope to ensure full removal of cells. The collected lysates in the 15 ml Falcon tubes were placed into the −80° C. freezer.
Falcon tubes containing the homogenates were removed from the freezer and stored for 5 minutes at RT to permit the complete dissociation of nucleoprotein complexes.
Two aliquots of 1 ml lysate were removed from each sample and 200 μl of chloroform was added to each (0.2 ml of chloroform per 1 ml of TRIzol Reagent used during the cell lysis step) and the tube was shaken vigorously. Samples were stored at RT for 2-3 minutes and subsequently centrifuged at 12,000×g for 15 minutes at 4° C.
The mixture separated into three layers: a lower red phenol-chloroform phase, an interphase and a colorless upper aqueous phase. The RNA remained in the top aqueous phase, DNA in the white middle (interphase) phase and protein in the pink bottom (organic) phase. The top ¾ of the aqueous phase was transferred to a new clean Eppendorf tube.
The RNA was precipitated from the aqueous phase by adding an equal amount of 100% ethanol. The precipitated RNA was fixed onto a Spin Cartridge, washed twice and dried. […]

## sodium salt of dextran sulfate [LMW-DS]
48 hours
  number of genes: no effect / abolished nutrient effect: 177
  number of genes: no effect / new effect induced by LMW-DS: 108
  number of genes: no effect / total: 285
  number of genes: significant downregulation / abolished nutrient effect: 47
  number of genes: significant downregulation / enhanced response to nutrients: 36
  number of genes: significant downregulation / new effect induced by LMW-DS: 375
  number of genes: significant downregulation / not different from control: 104
  number of genes: significant downregulation / total: 562
  number of genes: significant upregulation / abolished nutrient effect: 40
  number of genes: significant upregulation / enhanced response to nutrients: 103
  number of genes: significant upregulation / new effect induced by LMW-DS: 71
  number of genes: significant upregulation / not different from control: 75
  number of genes: significant upregulation / total: 289
  number of genes: total / abolished nutrient effect: 264
  number of genes: total / enhanced response to nutrients: 139
  number of genes: total / new effect induced by LMW-DS: 554
  number of genes: total / not different from control: 179
  number of genes: total / total: 1136
D0 control vs D2 LMW-DS treated
  differentially expressed genes: 315 genes
Second comparison
  differentially expressed genes: 425 genes
